The results in this text go back to ChEMBL document CHEMBL4118151, “Highly potent activity of isopulegol-derived substituted octahydro-2H-chromen-4-ols against influenza A and B viruses” (Bioorg Med Chem Lett, 2018).

Data set [1] has as its system Influenza A virus. As to the kind of experiment: Antiviral activity against amantadine/rimantadine-resistant Influenza A virus (A/Puerto Rico/8/34(H1N1)) infected in MDCK cells assessed as inhibition of viral replication after 48 hrs by hemagglutination test. It is filed as functional, organism-based. To be noted: A/Puerto Rico/8/1934(H1N1).
Data set [2] is described as follows: Selectivity index, ratio of CC50 for MDCK cells to IC50 for amantadine/rimantadine-resistant Influenza A virus (A/Puerto Rico/8/34(H1N1)). The data set is classed as toxicity. To be noted: dog, read-out: Ratio CC50/IC50.
Data set [3] in a line: Selectivity index, ratio of CC50 for MDCK cells to IC50 for osaltamivir-resistant Influenza A virus (A/Vladivostok/02/09(H1N1)). The data set is classed as toxicity. Particulars: dog, read-out: Ratio CC50/IC50.
Data set [4] can be described thus: Selectivity index, ratio of CC50 for MDCK cells to IC50 for amantadine/rimantadine-resistant Influenza B virus (B/Florida/4/06/Yamagata-like). The data set is classed as toxicity. To be noted: dog, read-out: Ratio CC50/IC50.
For data set [5], the system named is Influenza B virus. Put plainly: Antiviral activity against amantadine/rimantadine-resistant Influenza B virus (B/Florida/4/06(Yamagata-like)) infected in MDCK cells assessed as inhibition of viral replication after 48 hrs by hemagglutination test. The data set is classed as functional, organism-based, Influenza B virus (B/Florida/4/2006).
Data set [6] deals with Influenza A virus. As to the kind of experiment: Antiviral activity against osaltamivir-resistant Influenza A virus (A/Vladivostok/02/09(H1N1)) infected in MDCK cells assessed as inhibition of viral replication after 48 hrs by hemagglutination test. It is filed as functional, organism-based.
Data set [7] is described as follows: Selectivity index, ratio of CC50 for MDCK cells to IC50 for amantadine/rimantadine-resistant Influenza A virus (A/California/07/09(H1N1)). It is filed as toxicity. Particulars: dog, read-out: Ratio CC50/IC50.
For data set [8], the system named is Influenza A virus. Put plainly: Antiviral activity against amantadine/rimantadine-resistant Influenza A virus (A/California/07/09(H1N1)) infected in MDCK cells assessed as inhibition of viral replication after 48 hrs by hemagglutination test. The data set is classed as functional, organism-based. Particulars: A/California/07/2009(H1N1).

With `C[C@@H]1CC[C@@H]2[C@H](C1)OC1(CCCC1)C[C@@]2(C)O`, the IC50 – broadly, the concentration that gives 50% inhibition – in data set [1] came out at 8.4 µM. Also, the selectivity ratio in data set [2] was 96.
Regarding `C[C@@H]1CC[C@@H]2[C@H](C1)OC(C)(C)CC2(C)O` (some centres undefined), in data set [1], the IC50 is 17 µM. Moreover, the selectivity ratio in data set [2] turned out to be 4.
For `C[C@@H]1CC[C@@H]2[C@@H](C1)O[C@@H](C1CCCCC1)C[C@@]2(C)O`, the IC50 in data set [1] turned out to be 12.4 µM. The selectivity ratio in data set [2] is 2.
Turning to `C[C@@H]1CC[C@@H]2[C@H](C1)OC1(CCCCCC1)C[C@@]2(C)O`, the IC50 in data set [1] worked out at 82.7 µM. Also, in data set [2], the selectivity ratio came out at 3.
For `CCCC1(CCC)C[C@@](C)(O)[C@@H]2CC[C@@H](C)C[C@@H]2O1` the same measures were 45.5 µM and 3.
As for `C[C@@H]1CC[C@@H]2[C@H](C1)OC1(CCCCCCC1)C[C@@]2(C)O`, the concentration for half-maximal inhibition (IC50) in data set [1] is > 118 µM.
`C[C@@H]1CC[C@@H]2[C@H](C1)OC1(CCCCC1)C[C@@]2(C)O`: the concentration for half-maximal inhibition (IC50) in data set [1] was 18.3 µM. In addition, the selectivity ratio in data set [2] was 34.
The like results for `C[C@@H]1CC[C@@H]2[C@@H](C1)OC(C)(C)C[C@]2(C)O` were, in that order, 70.8 µM and 12.
With `CCC[C@H]1C[C@@](C)(O)[C@@H]2CC[C@@H](C)C[C@H]2O1`, the IC50 in data set [1] was > 1330 µM.
On to `CCC1(CC)C[C@@](C)(O)[C@@H]2CC[C@@H](C)C[C@@H]2O1`, for which, in data set [1], the IC50 stood at 19.6 µM. Also, the selectivity ratio in data set [2] worked out at 10.
Turning to `C[C@@H]1CC[C@@H]2[C@@H](C1)OC(C)(C)C[C@@]2(C)O`, the selectivity ratio in data set [3] turned out to be 1; in data set [4] it was 83; in data set [7], 1570. In addition, the IC50 was 17 µM in data set [5], 7.5 µM in data set [1], > 1.42 mM in data set [6] and 900 nM in data set [8].
`CC(C)=O` [ACETONE]: the 50% inhibitory concentration (IC50) in data set [1] was determined as 7.5 µM.
On the same count and under the same terms, under `NC(=O)c1ncn([C@@H]2O[C@H](CO)[C@@H](O)[C@H]2O)n1` [RIBAVIRIN] stands 44 µM.
As to `CC(N)C12CC3CC(CC(C3)C1)C2` (centres undefined) [RIMANTADINE], the IC50 in data set [1] was determined as 72 µM. Further, the selectivity ratio in data set [2] amounted to 4.
